Results taken from patent publication US10030044B2, “Nucleotides for the treatment of liver cancer” (IDENIX PHARMACEUTICALS LLC, priority 2013, dated 2018).
pIC50: −log10 of the molar value.

Tests used:
[1] = Mouse liver pharmacokinetics (liver triphosphate levels) following a single oral dose; type: in vivo, mice; settings: for Fold change Mouse Liver GemC TP compared to Gemcitabine / Fold change Mouse Liver GemC TP produced compared to GemU TP: single oral dose, calculated from Table 2 data
Experimental: A single oral dose of test compound in PEG 200 (dose volume 5 mL/kg) was administered to C57BL/6 male mice. Five untreated animals were used for the collection of control plasma and liver. Terminal plasma and liver samples were collected from three animals per time point at 1, 2, 4, 12, and 24 hours post dose. Liver specimens were collected from all animals immediately after the incision. Freezing forceps stored in liquid nitrogen were used to freeze the liver before excision. […]
Liver samples were analyzed for corresponding active triphosphate species by LC-MS/MS. Triphosphate levels were assayed by homogenizing (on ice) a known weight of mouse liver with 4× volume of 0.95 M trichloroacetic acid (TCA). Internal standard solution was added to the homogenate followed by neutralization with 20% ammonium hydroxide solution and addition of 500 μL 1% formic acid. The tissue samples were extracted by weak anion exchange solid phase extraction (SPE). Post extraction, the eluates were evaporated under nitrogen, followed by reconstitution before injection onto the LC-MS/MS system. The samples were chromatographed on a Luna NH2 column using a gradient system of ammonium acetate (1 mM to 20 mM and pH 8.0 to pH 10.0) in water and acetonitrile (70:30). The analyte was detected and quantified by tandem mass spectrometry in positive ion mode on an API4000 equipped with a Turbo Ionspray® interface. The calibration range was 10 to 10000 pmol/mL in mouse liver homogenate (50 to 50000 pmol/g of mouse liver).

[2] = system: HepG2 cell line; test: In Vitro Inhibition of Hep G2 Hepatocytes (CellTiter-Glo, 72 hr); type: cell-based; settings: HepG2 cells, 72 hr exposure
Experimental: Cells were grown in RPMI-1640 supplemented with L-glutamine and 10% FBS: HepG2.
96 well plates of HepG2 cell line were seeded with the optimized number of cells per well in a total volume of 50 μL per well. The plates were left overnight. Some wells were seeded with 100 μL of media for media control. The following day, cells were exposed to test compounds. At same time as drug exposure, a CTG assay was conducted on 1st plate for the 0 hr count.
2× stocks of each compound in media were prepared for dosing, as follows:
50 μL of above 2× stocks were added to cells and medium already on plate to give final concentrations. 50 μL media were added to cell control wells, and 50 μL of mix added to vehicle control wells. 10 μM Dox was added to appropriate wells. Cells exposed to test compounds were incubated at 37° C. for 72 hr followed by a CTG assay.
At the end of the 72 hr exposure period, plates were removed for a CellTiter-Glo (CTG) assay from a 37° C., 5% CO2 incubator and placed on the bench at room temperature for 30 mins. 100 μL of CellTiter-Glo reagent was added and mixed for 2 mins, followed by a further 10 min incubation at room temperature. Luminescence was recorded using Synergy 4.0.

Compound | Fold change Mouse Liver GemC TP compared to Gemcitabine [1] | Fold change Mouse Liver GemC TP produced compared to GemU TP [1] | pIC50 ([2]; Homo sapiens) | further results
CC(C)OC(=O)[C@@H](C)NP(=O)(OC[C@H]1O[C@@H](n2ccc(N)nc2=O)C(F)(F)[C@@H]1O)Oc1ccccc1 (single isomer, unassigned) [Compound 4, Diastereomer 1] | ++++++ (100 < ++++++) | ++++ (25 < ++++ ≤ 50) | < 5.00 | Clast ([1]; analyte GemU TP in mouse liver, single oral dose 182 mg/kg in PEG 200, 182 mg/kg): +++ (5,000 < +++ ≤ 15,000)
CC(C)OC(=O)[C@@H](C)NP(=O)(OC[C@H]1O[C@@H](n2ccc(N)nc2=O)C(F)(F)[C@@H]1O)Oc1ccccc1 (single isomer, unassigned) [Compound 4, Diastereomer 2] | ++ (5 < ++ ≤ 10) | +++ (10 < +++ ≤ 25) | – | pIC50 [2]: < 5.00
C[C@H](NP(=O)(OC[C@H]1O[C@@H](n2ccc(N)nc2=O)C(F)(F)[C@@H]1O)Oc1ccccc1)C(=O)OCc1ccccc1 (single isomer, unassigned) [drawing 124] | – | – | 5.00 to 6.00 | Fold change Mouse Liver GemC TP compared to Gemcitabine ([1]; listed as drawing 131): + (+ ≤ 5); Fold change Mouse Liver GemC TP produced compared to GemU TP ([1]; listed as drawing 131): + (+ ≤ 5)
C[C@H](NP(=O)(OC[C@H]1O[C@@H](n2ccc(N)nc2=O)C(F)(F)[C@@H]1O)Oc1ccccc1)C(=O)OCc1ccccc1 (single isomer, unassigned) [drawing 127] | – | – | – | Fold change Mouse Liver GemC TP compared to Gemcitabine ([1]; listed as drawing 130): ++++ (25 < ++++ ≤ 50); Fold change Mouse Liver GemC TP produced compared to GemU TP ([1]; listed as drawing 130): +++ (10 < +++ ≤ 25)
Nc1ccn([C@@H]2O[C@H](CO)[C@@H](O)C2(F)F)c(=O)n1 [Gemcitabine, gemcitabine] | – | + (+ ≤ 5) | – | –
Nc1ccn([C@@H]2O[C@H](CO)[C@@H](O)C2(F)F)c(=O)n1 [drawing 125] | – | – | ≥ 8.00 | –
